Test results: patent US9458118B2, “Sodium channel modulators for the treatment of pain and diabetes” (CHROMOCELL CORPORATION, priority 2013, dated 2016)

Legend:
rat = assay: Formalin test (pain behaviors); type: in vivo; conditions: 150 μL of 1 or 2% w/v solution, topical route
Sprague-Dawley rats = assay: Partial sciatic nerve ligation (PSNL) model, behavioral tests; type: in vivo, rat; conditions: oral route, measured 30 minutes post dose
From the text: 250-350 g male Sprague-Dawley rats from appropriate animal resources were anesthetized with 2.5% isoflurane. A hind leg was shaved, and the skin was sterilized with 0.5% iodine and 75% alcohol. All surgical instruments were sterilized before surgery and between animals. An incision (1 cm) was made at the middle of the thigh in parallel with the muscle and sciatic nerve distribution. The muscle was exposed and dissected at the joint of two muscles (biceps femoris) indicated by the light colored (white) fascia line. […]
The analgesic effect of the test compound was expressed as a percent recovery (% Recovery) relative to the sham control group baseline and calculated according to the formula: % Recovery=100%−{[(sham mean-test compound mean)/(sham mean-vehicle mean)]×100%} wherein “sham mean” refers to average score in the sham-operated group; “test compound mean” refers to average score in the PSNL-group (animals with partial sciatic nerve ligation) or diabetic group (animals treated with STZ) treated with a test compound; “vehicle mean” refers to average score in the PSNL-group or diabetic group treated with vehicle only. […]
Animals were placed under clear plastic boxes above a wire mesh floor, which allowed full access to the paws. […] Mechanical paw withdrawal thresholds (PWTs) were measured with the up-down testing paradigm. […]

diabetic rats = assay: Anti-diabetic and analgesic effect after chronic dosing in the rat STZ model of diabetes; type: in vivo
Method: 250-350 g male Sprague-Dawley rats from appropriate animal resources were used. Type I diabetes was induced by a single injection, (intraperitoneally, intravenously or intramuscularly) of 50-100 mg/kg of streptozotocin (STZ, Sigma Chemicals, St. Louis, Mo. or VWR) freshly dissolved in sodium citrate (0.01 M, pH 4.5). Sham animals were given either saline or same vehicle injection. Following a wait time of about two days, inducement of diabetes was confirmed in STZ-injected rats by measuring the plasma glucose concentrations in blood samples from the tail vein after a fast of 6 hours. The glucose level was assayed using a mini glucose monitor (kit for AlphaTRAK 2 meter, available from Abbott Laboratories). Screening for hyperglycemia in STZ-injected animals was done, with only animals with a final blood glucose level ≧300 mg/dl being selected for the study. Glucose levels in the sham animals remained normal. Other parameters (water intake, food intake, and bodyweight) were monitored before the treatment with a test compound and after the cessation of the treatment.
A Compound provided herein is tested in the rat STZ model of diabetes by chronic administration of the Compound for at least 7 days to evaluate analgesic and antidiabetic effects of the Compound. The analgesic effect of the Compound can be evaluated using behavioral tests (e.g., von Frey test, plantar test, and paw pressure test described herein below). The anti-diabetic effect of the Compound can be evaluated based on the improvement in the glucose level, food intake, water intake in the compound treated group compared to the untreated vehicle group and the normal, non-diabetic sham control group.
Diabetes mellitus was induced in rats as described in the section entitled “The Streptozotocin (STZ)-Induced Model of Diabetic Neuropathy” above.
The baseline glucose levels, daily food and water intake and behavioral tests (von Frey, paw pressure and plantar tests) were measured for each animal once weekly for 28 weeks, and once every 2-4 weeks for an additional 28-30 weeks. At a selected week (started from week 6) for a compound test, diabetic rats were divided into two test groups: a vehicle control group and a test compound treated group (n=10 each group). A sham group (saline only without STZ i.p. injection, n=10) was added as a normal, non-diabetic control group. To minimize animal stress associated with repeated daily handling, the compound treated diabetic group of animals received the test compound at a daily dose of 60 mg/kg in their drinking water containing 2% PEG600 and 1% glycofurol (the test compound concentration in the drinking water was based on the individual animal's average daily water consumption as determined the pre-dosing period, which averaged 0.1-0.11 mg/ml). The vehicle control group received drinking water containing 2% PEG600 and 1% glycofurol without the test compound. The treatment continued for 9 days. On day 10 drinking water with test compound or vehicle (2% PEG600 and 1% glycofurol) was replaced with plain drinking water in all groups. The monitoring of glucose levels, food and water intake as well as behavior tests continued for additional 28-30 weeks. […] A gradual, significant reversal of up to 90% of mechanical allodynia (von Frey test) was achieved after 9 days of treatment.
FIGS. 1-3 show food intake, glucose level, and water intake, respectively, for the vehicle control group, the test compound treated group (compound 49, 60 mg/kg/day), and the sham group. […] The significant reduction of food intake, glucose level, and water intake of the compound treated group compared to the vehicle control group continues through week 52. […] Since the standard deviation in the sham groups are less than 5%, no error bars are shown.

NaV1.7 = biological target: T1, NaV1.7 (Homo sapiens, UniProt Q15858); assay: FDSS membrane potential in-vitro assay; type: cell-based; conditions: stimulation with veratridine and scorpion venom
T1 construct: expressed in transfected cells
Method: In vitro assays were performed in recombinant cell line that stably express a heterotrimeric protein of interest from an introduced nucleic acid encoding the alpha subunit (hNav1.7, SCN9A), the beta subunit (SCNB1) and the beta subunit (SCNB2). The cell line was engineered using Human Embryonic Kidney 293 cells as host background. Additional cell lines stably expressing recombinant Nav1.7 or Nav1.5 alpha subunit alone or in combination with various beta subunits can also be used in in-vitro assays. […]
Blue membrane potential dye (Molecular Devices Inc.), or membrane potential-sensitive dye, HLB021-152 (AnaSpec) were combined with a fluorescence quencher, e.g., Dipicrylamine (DPA), Acid Violet 17 (AV 17), Diazine Black (DB), HLB30818, FD and C Black Shade, Trypan Blue, Bromophenol Blue, HLB30701, HLB30702, HLB30703, Nitrazine Yellow, Nitro Red, DABCYL (Molecular Probes), FD and C Red NO. […]
The cells were incubated with the membrane potential dye for 45-60 mins at 37° C. The dye-loaded assay plates were then placed in the high-throughput fluorescent plate reader (Hamamatsu FDSS). The kinetic read was started with assay plate imaging every second. […]
Control response elicited by veratridine and scorpion venom with buffer only (without test compounds added) was taken as the maximal response. […] The data were analyzed using GraphPad Prism software to determine the […] value for the test compound. […]

[1] = diabetic rats, 60 mg/kg/day in drinking water, 9 days
[2] = measured on day 11, two days after compound withdrawal

T1 sequence (Q15858 whole entry): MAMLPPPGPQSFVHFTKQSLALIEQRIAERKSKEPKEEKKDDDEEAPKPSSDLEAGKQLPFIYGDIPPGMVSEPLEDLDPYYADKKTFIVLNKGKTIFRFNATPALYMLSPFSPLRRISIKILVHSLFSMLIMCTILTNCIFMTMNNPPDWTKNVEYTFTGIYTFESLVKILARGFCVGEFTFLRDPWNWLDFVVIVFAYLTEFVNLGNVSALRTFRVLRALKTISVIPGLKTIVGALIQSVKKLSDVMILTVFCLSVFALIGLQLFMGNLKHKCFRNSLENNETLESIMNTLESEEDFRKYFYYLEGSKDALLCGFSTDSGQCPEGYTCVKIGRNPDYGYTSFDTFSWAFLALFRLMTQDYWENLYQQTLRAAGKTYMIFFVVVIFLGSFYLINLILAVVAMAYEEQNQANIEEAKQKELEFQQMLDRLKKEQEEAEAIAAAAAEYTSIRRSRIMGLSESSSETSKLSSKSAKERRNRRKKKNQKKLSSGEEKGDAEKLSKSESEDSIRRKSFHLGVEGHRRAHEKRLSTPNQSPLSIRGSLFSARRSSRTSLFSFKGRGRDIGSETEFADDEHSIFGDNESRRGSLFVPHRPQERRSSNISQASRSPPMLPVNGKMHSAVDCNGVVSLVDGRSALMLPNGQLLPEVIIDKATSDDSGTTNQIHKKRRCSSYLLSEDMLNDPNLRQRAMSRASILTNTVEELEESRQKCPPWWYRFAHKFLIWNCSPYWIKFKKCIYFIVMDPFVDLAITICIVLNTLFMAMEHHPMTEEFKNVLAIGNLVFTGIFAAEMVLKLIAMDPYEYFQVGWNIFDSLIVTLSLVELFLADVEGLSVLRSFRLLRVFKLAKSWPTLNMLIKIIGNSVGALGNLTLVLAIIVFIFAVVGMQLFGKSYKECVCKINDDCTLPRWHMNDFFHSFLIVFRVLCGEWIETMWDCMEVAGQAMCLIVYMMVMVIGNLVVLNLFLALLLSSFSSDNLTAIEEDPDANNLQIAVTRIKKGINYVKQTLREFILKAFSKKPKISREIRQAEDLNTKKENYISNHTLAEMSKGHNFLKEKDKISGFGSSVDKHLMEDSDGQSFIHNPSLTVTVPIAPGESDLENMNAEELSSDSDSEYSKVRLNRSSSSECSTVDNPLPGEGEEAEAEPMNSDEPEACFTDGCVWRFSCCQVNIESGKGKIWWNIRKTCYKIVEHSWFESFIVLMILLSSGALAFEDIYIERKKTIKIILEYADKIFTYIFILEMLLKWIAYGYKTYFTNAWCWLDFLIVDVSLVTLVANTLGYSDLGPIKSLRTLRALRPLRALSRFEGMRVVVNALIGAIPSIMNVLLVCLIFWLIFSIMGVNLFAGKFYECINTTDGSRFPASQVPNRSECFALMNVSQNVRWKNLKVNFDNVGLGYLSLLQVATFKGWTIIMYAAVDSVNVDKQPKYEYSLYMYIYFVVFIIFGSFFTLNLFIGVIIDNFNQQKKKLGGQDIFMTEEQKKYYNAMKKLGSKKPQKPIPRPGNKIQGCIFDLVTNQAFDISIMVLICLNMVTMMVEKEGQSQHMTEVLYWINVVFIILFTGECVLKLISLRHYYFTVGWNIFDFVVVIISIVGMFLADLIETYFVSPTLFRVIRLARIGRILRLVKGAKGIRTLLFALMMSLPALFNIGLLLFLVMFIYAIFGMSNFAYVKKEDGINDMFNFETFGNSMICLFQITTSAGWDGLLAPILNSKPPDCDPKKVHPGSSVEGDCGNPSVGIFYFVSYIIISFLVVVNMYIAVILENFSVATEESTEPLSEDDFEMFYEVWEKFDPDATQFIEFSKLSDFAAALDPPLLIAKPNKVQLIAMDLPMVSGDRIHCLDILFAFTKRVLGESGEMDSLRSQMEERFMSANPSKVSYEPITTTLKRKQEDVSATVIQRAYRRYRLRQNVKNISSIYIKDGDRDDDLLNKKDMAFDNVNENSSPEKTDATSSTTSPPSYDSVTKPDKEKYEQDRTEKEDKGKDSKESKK
T1 sequence (Q07699 19-218 partner): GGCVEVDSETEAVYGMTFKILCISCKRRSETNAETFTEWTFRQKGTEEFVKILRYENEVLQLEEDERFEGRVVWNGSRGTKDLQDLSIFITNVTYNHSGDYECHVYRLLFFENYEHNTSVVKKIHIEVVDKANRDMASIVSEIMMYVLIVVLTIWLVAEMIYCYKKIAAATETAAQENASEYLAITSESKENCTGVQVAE
T1 sequence (O60939 30-215 partner): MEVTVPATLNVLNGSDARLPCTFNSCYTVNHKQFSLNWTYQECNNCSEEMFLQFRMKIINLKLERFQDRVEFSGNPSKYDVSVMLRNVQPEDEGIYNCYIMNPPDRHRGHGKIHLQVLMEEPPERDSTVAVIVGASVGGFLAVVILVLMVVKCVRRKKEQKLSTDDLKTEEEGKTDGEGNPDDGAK

Structure (SMILES)	reduction in pain response (formalin assay phase 2) relative to vehicle control (rat)	reduction in pain response (formalin assay, phase 1) relative to vehicle control (rat)	effect in the tactile allodynia test relative to vehicle control (Sprague-Dawley rats)	food intake compared to the vehicle control group (diabetic rats; FIG. 1, 60 mg/kg/day for 9 days, reduction continues through week 52)	glucose level compared to the vehicle control group (diabetic rats; FIG. 2, 60 mg/kg/day for 9 days, reduction continues through week 52)	water intake compared to the vehicle control group (diabetic rats; FIG. 3, 60 mg/kg/day for 9 days, reduction continues through week 52)	general appearance and/or health (diabetic rats; after the treatment stopped on day 9)	mechanical pain (paw pressure test) (diabetic rats; [1])	tachyphylaxis (diabetic rats; [1])	thermal pain (plantar test) (diabetic rats; [1])	paw pressure test threshold after compound withdrawal (diabetic rats; [2])	plantar test threshold after compound withdrawal (diabetic rats; [2])	IC50 (NaV1.7) [µM]
O=C(O)CCNCCCc1cc(Cl)ccc1Oc1cc(F)c(S(=O)(=O)Nc2ncns2)cc1Cl [Compound 12, 3-((3-(2-(4-(N-(1,2,4-thiadiazol-5-yl)sulfamoyl)-2-chloro-5-fluorophenoxy)-5-chlorophenyl)propyl)amino)propanoic acid]	29-43%	13-24%	–	–	–	–	–	–	–	–	–	–	–
NC(=O)CNCCCc1cc(Cl)ccc1Oc1cc(F)c(S(=O)(=O)Nc2cscn2)cc1Cl [Compound 49, 2-((3-(5-chloro-2-(2-chloro-5-fluoro-4-(N-(thiazol-4-yl)sulfamoyl)phenoxy)phenyl)propyl)amino)acetamide]	–	–	no significant effect	significantly reduced	significantly reduced	significantly reduced	improvements in general appearance and/or health	rapid and sustained improvement	no tachyphylaxis	rapid and sustained improvement	returned to the pretreatment baseline	returned to the pretreatment baseline	–
C#CCN(CCCc1cc(Cl)ccc1Oc1cc(F)c(S(=O)(=O)Nc2nccs2)cc1Cl)CC(=O)O [Compound 54, 2-((3-(5-chloro-2-(2-chloro-5-fluoro-4-(N-(thiazol-2-yl)sulfamoyl)phenoxy)phenyl)propyl)(prop-2-yn-1-yl)amino)acetic acid]	–	–	no significant effect	–	–	–	–	–	–	–	–	–	< 0.1
